According to ChEMBL document CHEMBL3885881, “DrugMatrix”:

Organism: Rattus norvegicus
Experiment: DrugMatrix - Regimen: Daily Repeat
Assay type: toxicity, organism-based, Sprague-Dawley
Design: regimen Daily Repeat, gender Male, age 6-8 weeks
Conditions: in vivo, po, route oral GAVAGE, vehicle .5 % CMC; for ABSOLUTE BASOPHIL / ABSOLUTE EOSINOPHIL / ABSOLUTE LYMPHOCYTE / ABSOLUTE MONOCYTE / ABSOLUTE SEGMENTED NEUTROPHIL / BASOPHIL / EOSINOPHIL / ERYTHROCYTE COUNT / HEMATOCRIT / HEMOGLOBIN / LEUKOCYTE COUNT / LYMPHOCYTE / MEAN CORPUSCULAR HEMOGLOBIN / MEAN CORPUSCULAR HEMOGLOBIN CONCENTRATION / MEAN CORPUSCULAR VOLUME / MONOCYTE / NEUTROPHIL / NUCLEATED RED BLOOD CELLS / PLATELET COUNT: tissue Blood; for ALANINE AMINOTRANSFERASE / ALBUMIN / ALKALINE PHOSPHATASE / ASPARTATE AMINOTRANSFERASE / BLOOD UREA NITROGEN / CARBON DIOXIDE / CHLORIDE / CHOLESTEROL / CREATINE PHOSPHOKINASE / CREATININE / GLUCOSE / LACTATE DEHYDROGENASE / LIPASE / PHOSPHORUS / POTASSIUM / SODIUM / TOTAL BILIRUBIN / TOTAL PROTEIN / URIC ACID: tissue Plasma
[1] = 0 mg/kg, 72 h, dose level Control, time 3 day
[2] = 0 mg/kg, 120 h, dose level Control, time 5 day
[3] = 200 mg/kg, 72 h, dose level Low, time 3 day

## CCn1cc(C(=O)O)c(=O)c2cc(F)c(N3CCNCC3)cc21 [NORFLOXACIN]
[1]
  ABSOLUTE BASOPHIL: 0 CELLS/uL
  ABSOLUTE EOSINOPHIL: 0 CELLS/uL
  ABSOLUTE LYMPHOCYTE: 12269.67 CELLS/uL
  ABSOLUTE MONOCYTE: 160.33 CELLS/uL
  ABSOLUTE SEGMENTED NEUTROPHIL: 970 CELLS/uL
  BASOPHIL: 0%
  EOSINOPHIL: 0%
  ERYTHROCYTE COUNT: 5.76 x10E6/uL
  HEMATOCRIT: 36.57%
  HEMOGLOBIN: 14.22 G/DL
  LEUKOCYTE COUNT: 13.4 x10E3/uL
  LYMPHOCYTE: 91.67%
  MEAN CORPUSCULAR HEMOGLOBIN: 24.67 pg
  MEAN CORPUSCULAR HEMOGLOBIN CONCENTRATION: 38.85 G/DL
  MEAN CORPUSCULAR VOLUME: 63.52 fL
  MONOCYTE: 1.17%
  NEUTROPHIL: 7.17%
  NUCLEATED RED BLOOD CELLS: 0.33 /100WBC
  PLATELET COUNT: 1250.83 x10E3/uL
  ALANINE AMINOTRANSFERASE: 49.17 u/L
  ALBUMIN: 4.33 G/DL
  ALKALINE PHOSPHATASE: 378.5 u/L
  ASPARTATE AMINOTRANSFERASE: 82.17 u/L
  BLOOD UREA NITROGEN: 15 mg/dL
  CARBON DIOXIDE: 34.33 mmol/L
  CHLORIDE: 99.17 MEQ/L
  CHOLESTEROL: 71.17 mg/dL
  CREATINE PHOSPHOKINASE: 258.67 u/L
  CREATININE: 0.18 mg/dL
  GLUCOSE: 142.67 mg/dL
  LACTATE DEHYDROGENASE: 154.33 u/L
  LIPASE: 9 u/L
  PHOSPHORUS: 11.67 mg/dL
  POTASSIUM: 7.13 MEQ/L
  SODIUM: 142.22 MEQ/L
  TOTAL BILIRUBIN: 0.18 mg/dL
  TOTAL PROTEIN: 5.77 G/DL
  URIC ACID: 1.55 mg/dL
[2]
  ABSOLUTE BASOPHIL: 0 CELLS/uL
  ABSOLUTE EOSINOPHIL: 23.33 CELLS/uL
  ABSOLUTE LYMPHOCYTE: 14943.67 CELLS/uL
  ABSOLUTE MONOCYTE: 32 CELLS/uL
  ABSOLUTE SEGMENTED NEUTROPHIL: 1084.33 CELLS/uL
  BASOPHIL: 0%
  EOSINOPHIL: 0.17%
  ERYTHROCYTE COUNT: 5.71 x10E6/uL
  HEMATOCRIT: 35.28%
  HEMOGLOBIN: 14.27 G/DL
  LEUKOCYTE COUNT: 16.08 x10E3/uL
  LYMPHOCYTE: 93%
  MEAN CORPUSCULAR HEMOGLOBIN: 25.02 pg
  MEAN CORPUSCULAR HEMOGLOBIN CONCENTRATION: 40.43 G/DL
  MEAN CORPUSCULAR VOLUME: 61.82 fL
  MONOCYTE: 0.17%
  NEUTROPHIL: 6.67%
  NUCLEATED RED BLOOD CELLS: 0.33 /100WBC
  PLATELET COUNT: 1274 x10E3/uL
  ALANINE AMINOTRANSFERASE: 54.17 u/L
  ALBUMIN: 4.22 G/DL
  ALKALINE PHOSPHATASE: 373.17 u/L
  ASPARTATE AMINOTRANSFERASE: 81.83 u/L
  BLOOD UREA NITROGEN: 16.67 mg/dL
  CARBON DIOXIDE: 30.33 mmol/L
  CHLORIDE: 99 MEQ/L
  CHOLESTEROL: 71 mg/dL
  CREATINE PHOSPHOKINASE: 273.5 u/L
  CREATININE: 0.22 mg/dL
  GLUCOSE: 141.83 mg/dL
  LACTATE DEHYDROGENASE: 153.67 u/L
  LIPASE: 10.33 u/L
  PHOSPHORUS: 11.38 mg/dL
  POTASSIUM: 7.08 MEQ/L
  SODIUM: 142.75 MEQ/L
  TOTAL BILIRUBIN: 0.18 mg/dL
  TOTAL PROTEIN: 6.1 G/DL
  URIC ACID: 1.67 mg/dL
[3]
  ABSOLUTE BASOPHIL: 0 CELLS/uL
  ABSOLUTE EOSINOPHIL: 0 CELLS/uL
  ABSOLUTE LYMPHOCYTE: 11949 CELLS/uL
  ABSOLUTE MONOCYTE: 111 CELLS/uL
  ABSOLUTE SEGMENTED NEUTROPHIL: 1006.67 CELLS/uL
  BASOPHIL: 0%
  EOSINOPHIL: 0%
  ERYTHROCYTE COUNT: 5.6 x10E6/uL
  HEMATOCRIT: 36.17%
  HEMOGLOBIN: 14.13 G/DL
  LEUKOCYTE COUNT: 13.07 x10E3/uL
  LYMPHOCYTE: 91.67%
  MEAN CORPUSCULAR HEMOGLOBIN: 25.27 pg
  MEAN CORPUSCULAR HEMOGLOBIN CONCENTRATION: 39.07 G/DL
  MEAN CORPUSCULAR VOLUME: 64.63 fL
  MONOCYTE: 1%
  NEUTROPHIL: 7.33%
  NUCLEATED RED BLOOD CELLS: 0 /100WBC
  PLATELET COUNT: 1470.67 x10E3/uL
  ALANINE AMINOTRANSFERASE: 63.33 u/L
  ALBUMIN: 4.33 G/DL
  ALKALINE PHOSPHATASE: 468 u/L
  ASPARTATE AMINOTRANSFERASE: 89 u/L
  BLOOD UREA NITROGEN: 13.67 mg/dL
  CARBON DIOXIDE: 28 mmol/L
  CHLORIDE: 102 MEQ/L
  CHOLESTEROL: 54.33 mg/dL
  CREATINE PHOSPHOKINASE: 294 u/L
  CREATININE: 0.26 mg/dL
  GLUCOSE: 137.33 mg/dL
  LACTATE DEHYDROGENASE: 260.67 u/L
  LIPASE: 10 u/L
  PHOSPHORUS: 13.5 mg/dL
  POTASSIUM: 6.81 MEQ/L
  SODIUM: 146.4 MEQ/L
  TOTAL BILIRUBIN: 0.23 mg/dL
  TOTAL PROTEIN: 6 G/DL
  URIC ACID: 2.13 mg/dL
